Measured values published in the Kinase Knowledgebase extract (Sharma et al. 2016).

Assays:
[1] = biological target: PIK3CA (human) (UniProt P42336); assay: Inhibition of A2780 Cell Proliferation
[2] = biological target: PIK3CA (human) (UniProt P42336); assay: Inhibition of PIK3CA Kinase Activity

Chain of PIK3CA (human) (P42336 whole entry, looked up): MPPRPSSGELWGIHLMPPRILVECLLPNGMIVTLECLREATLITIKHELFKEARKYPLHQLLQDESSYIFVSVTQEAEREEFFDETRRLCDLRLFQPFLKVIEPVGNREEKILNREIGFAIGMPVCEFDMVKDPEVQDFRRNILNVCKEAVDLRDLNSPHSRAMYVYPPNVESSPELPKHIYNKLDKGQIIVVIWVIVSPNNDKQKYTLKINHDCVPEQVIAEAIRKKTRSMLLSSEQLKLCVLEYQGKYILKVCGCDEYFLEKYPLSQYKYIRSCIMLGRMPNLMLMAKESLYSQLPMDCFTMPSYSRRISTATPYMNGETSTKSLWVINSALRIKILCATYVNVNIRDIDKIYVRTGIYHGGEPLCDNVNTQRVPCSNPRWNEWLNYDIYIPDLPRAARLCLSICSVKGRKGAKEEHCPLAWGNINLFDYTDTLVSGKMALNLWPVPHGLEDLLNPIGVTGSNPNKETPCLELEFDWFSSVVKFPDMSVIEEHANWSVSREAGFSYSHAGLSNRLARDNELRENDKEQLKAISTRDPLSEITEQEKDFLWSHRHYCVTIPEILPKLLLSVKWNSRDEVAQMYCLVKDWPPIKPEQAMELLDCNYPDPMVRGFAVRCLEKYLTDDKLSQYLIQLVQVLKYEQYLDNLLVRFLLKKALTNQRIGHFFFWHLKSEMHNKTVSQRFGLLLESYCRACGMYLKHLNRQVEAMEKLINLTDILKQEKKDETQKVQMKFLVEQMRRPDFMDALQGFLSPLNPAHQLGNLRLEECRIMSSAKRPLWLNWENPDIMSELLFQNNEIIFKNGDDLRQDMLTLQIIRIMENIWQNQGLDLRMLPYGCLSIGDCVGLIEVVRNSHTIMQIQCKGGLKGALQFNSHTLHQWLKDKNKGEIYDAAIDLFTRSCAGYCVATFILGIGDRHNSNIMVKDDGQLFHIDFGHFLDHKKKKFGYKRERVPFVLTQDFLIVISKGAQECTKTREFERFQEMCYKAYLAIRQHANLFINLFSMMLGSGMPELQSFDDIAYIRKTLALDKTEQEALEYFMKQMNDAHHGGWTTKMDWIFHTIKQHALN

| EC50 [1] | IC50 [2] | Structure (SMILES) |
| --- | --- | --- |
| < 10000 nM | < 1000 nM | CC(=O)Nc1cn2nc(-c3cnc(N)c(CN4CCCC4)c3)ccc2n1 |
| < 10000 nM | < 1000 nM | Nc1ncc(-c2ccc3nc(NC(=O)Cc4ccccn4)cn3c2)cc1C(F)(F)F |
| < 1000 nM | < 1000 nM | Nc1ncc(-c2ccc3nc(NC(=O)CO[C@@H]4CCNC4)cn3n2)cc1C(F)(F)F |
| < 10000 nM | < 1000 nM | CC(=O)Nc1cn2cc(-c3cnc(N)c(C)n3)ccc2n1 |
| < 1000 nM | < 1000 nM | Cc1cc(C(=O)Nc2cn3cc(-c4cnc(N)c(C(F)(F)F)c4)ccc3n2)no1 |
| < 25000 nM | < 1000 nM | CC(=O)Nc1nc2ccc(-c3cnc(N)c(C(F)(F)F)c3)cn2c1-c1cccc(F)c1 |
| < 1000 nM | < 1000 nM | CC(=O)Nc1nc2ccc(-c3cnc(N)c(C(F)(F)F)c3)cn2c1C#Cc1cccnc1 |
| < 25000 nM | < 1000 nM | CC(=O)Nc1cn2cc(-c3cnc(N)c(C=NOC(C)(C)C)c3)ccc2n1 |
| < 10000 nM | < 1000 nM | Nc1ncc(-c2ccc3nc(NC(=O)N4CCCC4C(F)(F)F)cn3c2)cc1C(F)(F)F (stereo not drawn) |
| < 25000 nM | < 1000 nM | CC(=O)N1CCC[C@H]1C(=O)Nc1cn2cc(-c3cnc(N)c(C(F)(F)F)c3)ccc2n1 |
| < 1000 nM | < 1000 nM | CC(=O)Nc1cn2nc(-c3cnc(N)c(OC(F)F)c3)ccc2n1 |
| < 10000 nM | < 1000 nM | COc1ccc(CC(=O)Nc2cn3cc(-c4cnc(N)c(C(F)(F)F)c4)ccc3n2)cc1OC |
| < 25000 nM | < 1000 nM | CC(=O)Nc1cn2cc(-c3cnc(N)c(C(=O)NCCO)n3)ccc2n1 |
| < 10000 nM | < 1000 nM | CCOc1nc(-c2ccc3nc(NC(C)=O)cn3n2)cnc1N |
| < 1000 nM | < 1000 nM | CC(=O)Nc1cn2cc(-c3cnc(N)c(-c4ccccc4N4CCOCC4)c3)ccc2n1 |
| < 10000 nM | < 1000 nM | CC(=O)Nc1nc2ccc(-c3cnc(N)c(CN(C)C)c3)cc2s1 |
| < 25000 nM | < 1000 nM | CC(=O)Nc1nc2c(F)cc(-c3cnc(N)c(C(F)(F)F)c3)cc2s1 |
| < 25000 nM | < 1000 nM | CC(=O)Nc1cn2nc(-c3cnc(N)c(C(=O)NCCO)c3)ccc2n1 |
| < 25000 nM | < 1000 nM | CNC(=O)C1CCN(C(=O)Nc2cn3cc(-c4cnc(N)c(C(F)(F)F)c4)ccc3n2)C1 (stereo not drawn) |
| < 10000 nM | < 1000 nM | CC(=O)Nc1nc2ccc(-c3cnc(N)c(C(F)(F)F)c3)cn2c1C#CCN1CCOCC1 |

| EC50 [1] | IC50 [2] | Structure (SMILES) |
| --- | --- | --- |
| < 10000 nM | < 1000 nM | CC(C)(C)OC(=O)N1CC(C(=O)Nc2cn3cc(-c4cnc(N)c(C(F)(F)F)c4)ccc3n2)C1 |
| < 10000 nM | < 1000 nM | C/C=C/C(=O)Nc1cn2cc(-c3cnc(N)c(C(F)(F)F)c3)ccc2n1 |
| < 10000 nM | < 1000 nM | CCC(=O)Nc1cn2cc(-c3cnc(N)c(C(F)(F)F)c3)ccc2n1 |
| < 1000 nM | < 1000 nM | CC(=O)Nc1cn2nc(-c3cnc(N)c(C(=O)NCCNC(=O)OC(C)(C)C)c3)ccc2n1 |
| < 25000 nM | < 1000 nM | CC(=O)Nc1cn2nc(-c3cnc(N)cn3)ccc2n1 |
| < 10000 nM | < 1000 nM | CCN1CCN(CCCC(=O)Nc2cn3cc(-c4cnc(N)c(C(F)(F)F)c4)ccc3n2)CC1 |
| < 1000 nM | < 1000 nM | Nc1ncc(-c2ccc3nc(NC(=O)CCC4CCCCN4)cn3n2)cc1C(F)(F)F (stereo not drawn) |
| < 10000 nM | < 1000 nM | COC(=O)Nc1cn2cc(-c3cnc(N)c(C(F)(F)F)c3)ccc2n1 |
| < 10000 nM | < 1000 nM | CC(=O)Nc1cn2cc(-c3cnc(N)c(-c4ccccc4C(F)(F)F)c3)ccc2n1 |
| < 10000 nM | < 1000 nM | CC(=O)Nc1cn2c(C)c(-c3cnc(N)c(OCC(F)(F)F)n3)ccc2n1 |
| < 25000 nM | < 1000 nM | COc1nc(-c2cc(F)c3nc(NC(C)=O)cn3c2)cnc1N |
| < 1000 nM | < 1000 nM | Nc1ncc(-c2ccc3nc(NC(=O)c4ccc(F)cc4)cn3c2)cc1C(F)(F)F |
| < 25000 nM | < 1000 nM | CC(=O)Nc1nc2ccc(-c3cnc(N)c(C(F)(F)F)c3)cn2c1-c1ccccc1 |
| < 25000 nM | < 1000 nM | CC(=O)Nc1cn2cc(-c3cnc(N)c(C(F)(F)F)c3)c(F)cc2n1 |
| < 25000 nM | < 1000 nM | CC(=O)Nc1cn2nc(-c3cnc(N)cc3C(F)(F)F)ccc2n1 |
| < 10000 nM | < 1000 nM | CN(CC(=O)Nc1cn2cc(-c3cnc(N)c(C(F)(F)F)c3)ccc2n1)C(=O)OC(C)(C)C |
| < 10000 nM | < 1000 nM | COc1ccccc1-c1cc(-c2ccc3nc(NC(C)=O)cn3n2)cnc1N |
| < 10000 nM | < 1000 nM | Nc1ncc(-c2ccc3nc(NC(=O)N4CCC[C@H]4CO)cn3c2)cc1C(F)(F)F |
| < 10000 nM | < 1000 nM | NCC(=O)Nc1cn2cc(-c3cnc(N)c(C(F)(F)F)c3)ccc2n1 |
| < 1000 nM | < 1000 nM | CC(=O)Nc1cn2cc(-c3cnc(N)c(C=NNCC(F)(F)F)c3)ccc2n1 |

| EC50 [1] | IC50 [2] | Structure (SMILES) |
| --- | --- | --- |
| < 25000 nM | < 1000 nM | C=Cc1c(NC(C)=O)nc2ccc(-c3cnc(N)c(C(F)(F)F)c3)cn12 |
| < 25000 nM | < 1000 nM | Nc1ccc(-c2ccc3nc(NC(=O)CCCN4CCOCC4)sc3c2)cn1 |
| < 1000 nM | < 1000 nM | CC(=O)Nc1cn2cc(-c3cnc(N)c(OC4CN(C(=O)OC(C)(C)C)C4)n3)ccc2n1 |
| < 1000 nM | < 1000 nM | CC(C)(C)OC(=O)NCCCC(=O)Nc1cn2nc(-c3cnc(N)c(C(F)(F)F)c3)ccc2n1 |
| < 10000 nM | < 1000 nM | Nc1ncc(-c2ccc3nc(NC(=O)[C@@H]4CCCN4)cn3n2)cc1C(F)(F)F |
| < 25000 nM | < 1000 nM | Nc1ncc(-c2ccc3nc(NC(=O)C4CNC4)cn3n2)cc1Cl |
| < 1000 nM | < 1000 nM | CC(=O)Nc1cn2cc(-c3cnc(N)c(-c4ccc(C(F)(F)F)cc4)c3)ccc2n1 |
| < 10000 nM | < 1000 nM | CC(=O)Nc1cn2cc(-c3cnc(N)c(C#N)c3)ccc2n1 |
| < 10000 nM | < 10000 nM | CC(=O)Nc1cn2cc(-c3cnc(N)c(-c4ccc(N5CCOCC5)cc4)c3)ccc2n1 |
| < 10000 nM | < 1000 nM | CC(C)(C)OC(=O)N1CC(C(=O)Nc2cn3nc(-c4cnc(N)c(C(F)(F)F)c4)ccc3n2)C1 |
| < 1000 nM | < 1000 nM | Nc1ccc(C(=O)Nc2nc3ccc(-c4cnc(N)c(C(F)(F)F)c4)cc3s2)cn1 |
| < 25000 nM | < 1000 nM | CC(=O)Nc1cn2cc(-c3cnc(N)c(F)c3)ccc2n1 |
| < 10000 nM | < 1000 nM | Nc1ncc(-c2ccc3nc(NC(=O)C4CNC4)cn3c2)cc1C(F)(F)F |
| < 1000 nM | < 1000 nM | CC(=O)Nc1cn2cc(-c3cnc(N)c(-c4cccc(N5CCOCC5)c4)c3)ccc2n1 |
| < 10000 nM | < 1000 nM | CC(=O)Nc1nc2ccc(-c3cnc(N)c(C(F)(F)F)c3)cn2c1C#CCNC(=O)OC(C)(C)C |
| < 1000 nM | < 1000 nM | CC(=O)Nc1nc2ccc(-c3cnc(N)c(OCC(F)(F)F)n3)cc2s1 |
| < 25000 nM | < 1000 nM | CC(=O)N1CCC[C@H]1C(=O)Nc1cn2cc(-c3cnc(N)c(Cl)c3)ccc2n1 |
| < 10000 nM | < 1000 nM | CC(=O)Nc1cn2cc(-c3cnc(N)c(-c4ccccc4F)c3)ccc2n1 |
| < 10000 nM | < 1000 nM | Nc1ncc(-c2ccc3nc(NC(=O)CCCN4CCOCC4)sc3c2)cn1 |
